{"source": "patent US10322184B2", "about": "“Emulsions for intrapulmonary delivery” (Carnegie Mellon University, priority 2016, dated 2019)", "tested_on": "Pseudomonas aeruginosa", "assay": "Agar well diffusion assessment of emulsified tobramycin availability (effective tobramycin concentration)", "assay_type": "cell-based", "conditions": "aqueous standard solution, 37° C., 24 hours", "description": "The presence and availability of emulsified tobramycin was quantified via the commonly used agar well diffusion method of measuring antibiotic content. In this method, the surface of LB agar plates is inoculated with 500 μL of mid-log growth Pseudomonas aeruginosa in tryptic soy broth. Similar methods are disclosed in Omri et al. Pulmonary Retention of Free and Liposome-Encapsulated Tobramycin after Intratracheal Administration in Uninfected Rats and Rats Infected with Pseudomonas aeruginosa. Antimicrobial Agents and Chemotherapy. 1994, 38: 1090-1095. […] Following this evaluation, the effects of Vaq and Caq were assessed using emulsions with Cfs=2 mg/mL H2O of FSH-PEG, Vaq=0.5-2.5%, and Caq=40-200 mg/mL. […]\nFor each formulation evaluated, approximately 10 mL of emulsion was prepared in a 15-mL centrifuge tube and allowed to sit at room temperature without agitation for five minutes before sampling. […] Following incubation, circular inhibition zones produced by tobramycin that had diffused into the agar were imaged and measured. Interpolation from the inhibition zones of aqueous standard solutions was then used to determine effective tobramycin concentrations (i.e., the aqueous tobramycin concentration resulting in an identical inhibition area) for each emulsion evaluated. […] Three separate trials were performed for each emulsion formulation evaluated. […]", "data": [{"smiles": "NC[C@H]1O[C@H](O[C@H]2[C@H](O)[C@@H](O[C@H]3O[C@H](CO)[C@@H](O)[C@H](N)[C@H]3O)[C@H](N)C[C@@H]2N)[C@H](N)C[C@@H]1O", "note": "[tobramycin]", "values": [{"measurement": "Aqueous tobramycin concentration producing the smallest measurable inhibition zone", "value": 5, "unit": "µg/mL"}]}]}
